Measured values: the supplement of paper PMC11061612

Key:
Experiment in all cases: combination Emax (second highest fraction inhibited in the dose matrix, 72 h); higher = more inhibition; extreme values may be limits of the assay
[1] = tested on: SNU-175 (Colorectal Carcinoma)
How it was run: (§1)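 After 24 hours at 37°C and 5% CO2 in 1536-well plates, cells in DMEM/F12 or RPMI plus 10% FBS received two-drug dose matrices for 72 hours. Viability came from CellTiter-Glo 2.0 luminescence and was scaled as inhibition, anchored at 0 by vehicle wells and at 1 by blank wells. Combination Emax is taken as the second-highest inhibition in the matrix, and Bliss excess as the observed combination effect less EA + EB − EA·EB, with EA and EB the single-agent effects.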

[2] = tested on: NCI-H196 (Small Cell Lung Carcinoma)
How it was run: as §1

[3] = tested on: JHH-1 (Hepatocellular Carcinoma)
How it was run: as §1

[4] = tested on: RPMI-8866 (Chronic Myelogenous Leukemia)
How it was run: as §1

KYM-1 (Rhabdomyosarcoma) = tested on: KYM-1 (Rhabdomyosarcoma)
How it was run: as §1

[5] = tested on: NKM-1 (Acute Myeloid Leukemia)
How it was run: as §1

[6] = tested on: NCI-H810 (Non-Small Cell Lung Carcinoma)
How it was run: as §1

HuO-3N1 (Osteosarcoma) = tested on: HuO-3N1 (Osteosarcoma)
How it was run: as §1

[7] = tested on: SK-MM-2 (Plasma Cell Myeloma)
How it was run: as §1

[8] = tested on: SW684 (Other Solid Carcinomas)
How it was run: as §1

[9] = tested on: OVTOKO (Ovarian Carcinoma)
How it was run: as §1

[10] = tested on: FLO-1 (Esophageal Adenocarcinoma)
How it was run: as §1

ES-2 (Ovarian Carcinoma) = tested on: ES-2 (Ovarian Carcinoma)
How it was run: as §1

[11] = tested on: LAMA-84 (Chronic Myelogenous Leukemia)
How it was run: as §1

[12] = tested on: NCI-H1623 (Lung Adenocarcinoma)
How it was run: as §1

[13] = tested on: HTC-C3 (Thyroid Gland Carcinoma)
How it was run: as §1

[14] = tested on: PANC-02-03 (Pancreatic Carcinoma)
How it was run: as §1

[15] = tested on: OCI-AML5 (Acute Myeloid Leukemia)
How it was run: as §1

[16] = tested on: RL95-2 (Endometrial Carcinoma)
How it was run: as §1

[17] = tested on: PC-14 (Lung Adenocarcinoma)
How it was run: as §1

Row | Structure (SMILES) | combination Emax [1] | combination Emax [2] | combination Emax [3] | combination Emax [4] | combination Emax (KYM-1 (Rhabdomyosarcoma)) | combination Emax [5] | combination Emax [6] | combination Emax (HuO-3N1 (Osteosarcoma)) | combination Emax [7] | combination Emax [8] | combination Emax [9] | combination Emax [10] | combination Emax (ES-2 (Ovarian Carcinoma)) | combination Emax [11] | combination Emax [12] | combination Emax [13] | combination Emax [14] | combination Emax [15] | combination Emax [16] | combination Emax [17]
1 | CN(CCO)CC[C@H](CSc1ccccc1)Nc1ccc(S(=O)(=O)NC(=O)c2ccc(N3CCC([C@@H](O)c4ccccc4-c4ccc(Cl)cc4)CC3)cc2)cc1S(=O)(=O)C(F)(F)F [AZD4320] + C1CN(CCC1(C(=O)N[C@@H](CCO)C2=CC=C(C=C2)Cl)N)C3=NC=NC4=C3C=CN4 [Capivasertib] (first compound max 1 µM, 7x7, partner max 3 µM) | 0.501 | 0.175 | 0.355 | 0.641 | 0.0568 | 1 | 0.482 | 0.201 | 1 | 0.449 | 0.413 | 0.343 | 0.131 | 0.696 | 0.278 | 0.207 | 0.0923 | 1 | 0.533 | 0.255
2 | COc1cccc2c1C(=O)c1c(O)c3c(c(O)c1C2=O)C[C@@](O)(C(=O)CO)C[C@@H]3O[C@H]1C[C@H](N)[C@H](O)[C@H](C)O1 [Doxorubicin] + Cc1cc2ncnn2cc1Nc1ncc2c(n1)n(C1CCOCC1)c(=O)n2C [AZD7648] (first compound max 1 µM, 7x7, partner max 10 µM) | 0.823 | 0.145 | 0.353 | 0.996 | 0.956 | 0.988 | 0.756 | 0.81 | 0.371 | 0.556 | 0.216 | 0.927 | 0.76 | 0.822 | 0.647 | 0.427 | 0.506 | 0.988 | 0.376 | 0.748
3 | CCN(CCO)CCCOc1ccc2c(Nc3cc(CC(=O)Nc4cccc(F)c4)[nH]n3)ncnc2c1 [AZD2811] + C=CCn1c(=O)c2cnc(Nc3ccc(N4CCN(C)CC4)cc3)nc2n1-c1cccc(C(C)(C)O)n1 [AZD1775] (first compound max 1 µM, partner max 1 µM) | 0.637 | 0.468 | 0.335 | 1 | 0.401 | 0.879 | 0.886 | 0.233 | 0.644 | 0.165 | 0.419 | 0.769 | 0.627 | 0.917 | 0.297 | 0.3 | 0.538 | 0.978 | 0.662 | 0.842
4 | Cn1cnc2c(F)c(Nc3ccc(Br)cc3Cl)c(C(=O)NOCCO)cc21 [Selumetinib] + CCN(CCO)CCCOc1ccc2c(Nc3cc(CC(=O)Nc4cccc(F)c4)[nH]n3)ncnc2c1 [AZD2811] (first compound max 10 µM, 7x7, partner max 1 µM) | 0.956 | 0.0609 | 0.375 | 0.34 | 0.318 | 0.758 | 0.444 | 0.181 | 0.161 | 0.277 | 0.227 | 0.475 | 0.488 | 0.958 | 0.331 | 0.654 | 0.475 | 1 | 0.87 | 0.587
5 | COc1nnc2ccc(N3CCC(c4ccc(OCCN5CCN(C)C(=O)[C@H]5C)cc4)CC3)nn12 [AZD5153] + Cc1c2c(nn1C)CSCc1cc(n(C)n1)CSc1cc(c3ccccc3c1)OCCCc1c(C(=O)O)n(C)c3c-2c(Cl)ccc13 [AZD5991] (first compound max 1 µM, 7x7, partner max 1 µM) | 0.931 | 0.307 | 0.906 | 0.857 | 1 | 1 | 0.995 | 0.628 | 0.93 | 0.46 | 0.531 | 0.717 | 0.654 | 0.928 | 1 | 0.745 | 0.595 | 0.997 | 0.928 | 0.441
6 | CC1(C)CCC(CN2CCN(c3ccc(C(=O)NS(=O)(=O)c4ccc(NCC5CCOCC5)c([N+](=O)[O-])c4)c(Oc4cnc5[nH]ccc5c4)c3)CC2)=C(c2ccc(Cl)cc2)C1 [Venetoclax] + CCN(CCO)CCCOc1ccc2c(Nc3cc(CC(=O)Nc4cccc(F)c4)[nH]n3)ncnc2c1 [AZD2811] (first compound max 1 µM, 7x7, partner max 1 µM) | 0.912 | 0.126 | 0.268 | 0.601 | 0.162 | 1 | 0.492 | 0.256 | 1 | 0.275 | 0.263 | 0.359 | 0.233 | 0.594 | 0.211 | 0.121 | 0.217 | 1 | 0.593 | 0.312
7 | CN(C)CCCOc1ccc(-c2ccc3ncc4c(c3c2)n(C2CCOCC2)c(=O)n4C)cn1 [AZD0156] + O=C(c1cc(Cc2n[nH]c(=O)c3ccccc23)ccc1F)N1CCN(C(=O)C2CC2)CC1 [Olaparib] (first compound max 3 µM, partner max 3 µM) | 0.553 | 0.145 | 0.196 | 0.285 | 0.583 | 0.585 | 0.306 | 0.289 | 0.348 | 0.141 | 0.33 | 0.289 | 0.448 | 0.472 | 0.333 | 0.142 | 0.248 | 0.139 | 0.384 | 0.236
8 | COc1cccc(OCCCN)c1-c1cc(Nc2cnc(C#N)cn2)n[nH]1 [Prexasertib] + C[C@@H]1COCCN1C2=NC(=NC(=C2)C3(CC3)[S@](=N)(=O)C)C4=C5C=CNC5=NC=C4 [AZD6738] (first compound max 1 µM, 7x7, partner max 10 µM) | 0.616 | 0.566 | 0.579 | 1 | 0.956 | 0.938 | 0.9 | 0.432 | 0.634 | 0.451 | 0.516 | 0.763 | 0.867 | 0.99 | 0.827 | 0.842 | 0.639 | 0.988 | 0.898 | 0.879
9 | CC(=O)c1c(C)c2cnc(Nc3ccc(N4CCNCC4)cn3)nc2n(C2CCCC2)c1=O [Palbociclib] + Cc1c2c(nn1C)CSCc1cc(n(C)n1)CSc1cc(c3ccccc3c1)OCCCc1c(C(=O)O)n(C)c3c-2c(Cl)ccc13 [AZD5991] (first compound max 10 µM, 7x7, partner max 1 µM) | 0.652 | 0.126 | 0.289 | 0.725 | 0.947 | 0.994 | 0.224 | 0.508 | 0.259 | 0.335 | 0.48 | 0.603 | 0.619 | 0.663 | 0.818 | 0.248 | 0.182 | 0.517 | 0.939 | 0.279
10 | COc1cccc(OCCCN)c1-c1cc(Nc2cnc(C#N)cn2)n[nH]1 [Prexasertib] + Cc1cc2ncnn2cc1Nc1ncc2c(n1)n(C1CCOCC1)c(=O)n2C [AZD7648] (first compound max 1 µM, 7x7, partner max 10 µM) | 0.586 | 0.551 | 0.559 | 1 | 0.942 | 0.965 | 0.896 | 0.49 | 0.67 | 0.498 | 0.526 | 0.703 | 0.848 | 0.99 | 0.804 | 0.843 | 0.609 | 0.988 | 0.893 | 0.861
11 | CC1(C)CCC(CN2CCN(c3ccc(C(=O)NS(=O)(=O)c4ccc(NCC5CCOCC5)c([N+](=O)[O-])c4)c(Oc4cnc5[nH]ccc5c4)c3)CC2)=C(c2ccc(Cl)cc2)C1 [Venetoclax] + C[C@@H]1COCCN1C2=NC(=NC(=C2)C3(CC3)[S@](=N)(=O)C)C4=C5C=CNC5=NC=C4 [AZD6738] (first compound max 1 µM, 7x7, partner max 10 µM) | 0.658 | 0.376 | 0.609 | 0.958 | 0.839 | 1 | 0.577 | 0.393 | 1 | 0.48 | 0.566 | 0.559 | 0.789 | 0.975 | 0.827 | 0.674 | 0.508 | 1 | 0.691 | 0.845
12 | Cc1cc2ncnn2cc1Nc1ncc2c(n1)n(C1CCOCC1)c(=O)n2C [AZD7648] + O=C(c1cc(Cc2n[nH]c(=O)c3ccccc23)ccc1F)N1CCN(C(=O)C2CC2)CC1 [Olaparib] (first compound max 10 µM, 7x7, partner max 10 µM) | 0.0944 | 0.129 | 0.105 | 0.594 | 0.274 | 0.73 | 0.193 | 0.233 | 0.156 | 0.154 | 0.186 | 0.208 | 0.283 | 0.17 | 0.446 | 0.214 | 0.147 | 0.25 | 0.264 | 0.241
13 | C=CCn1c(=O)c2cnc(Nc3ccc(N4CCN(C)CC4)cc3)nc2n1-c1cccc(C(C)(C)O)n1 [AZD1775] + O=C(c1cc(Cc2n[nH]c(=O)c3ccccc23)ccc1F)N1CCN(C(=O)C2CC2)CC1 [Olaparib] (first compound max 1 µM, partner max 10 µM) | 0.447 | 0.536 | 0.328 | 0.977 | 0.563 | 0.945 | 0.926 | 0.2 | 0.705 | 0.249 | 0.496 | 0.878 | 0.622 | 0.943 | 0.605 | 0.365 | 0.667 | 0.953 | 0.486 | 0.887
